According to patent US20220380376A1, “Nitrogen Oxide-Donating PDE-5 and/or PDE-6 Inhibitor Compounds” (ILDONG PHARMACEUTICAL CO., LTD., priority 2019, published 2022):

Tests used:
[1] = Plasma protein binding assay (equilibrium dialysis); format: in vitro ADME; conditions: human plasma, 2 μM, dialysis 4 hours at 37° C.
Description: The dialysis device used in this example is a 96-well equilibrium dialysis plate (Cat #1006, HT Dialysis LLC, Gales Gerry, CT), and HTD 96 a/b dialysis membrane strips (Cat #1101, MWCO 12-14 kDa, HT Dialysis LLC). The dialysis device was assembled following the manufacturer's instructions.
The dialysis membrane strips were soaked in ultra-pure water at room temperature for approximately 1 hour. Each membrane strip containing 2 membranes was separated and soaked in 20:80 ethanol/water (v/v) for approximately 20 minutes, after which they were ready for used or were stored in the solution at 2-8° C. for up to a month. Prior to experiment, the membrane was rinsed and soaked for 20 minutes in ultra-pure water.
On the day of the experiment, the plasma was thawed by running under col tap water and centrifuged at 3220 rpm for 5 minutes to remove any clos. The pH value of the resulting plasma was checked. Only plasma with pH value with 7.0-8.0 could be used.
Both test and control compounds were dissolved in DMSO to achieve 10 mM stock solutions. Working solutions (400 μM) if test and control compounds were prepared by diluting 10μ p of stock solutions with 240 μL of DMSO. Loading matrix solutions (2 μM) of both test and control compounds were prepared by diluting 5 μL of working solutions with 995 μL of blank matrix.
To prepare the loading matrix containing the test compound or control compounds, aliquots of either test compound working solutions or control compound working solution were spiked into blank matrix to achieve final test concentrations. The concentration of organic solvent in the final solutions were no more than 1% (normally 0.5%). The samples were mixture thoroughly before being used.
To prepare the time zero (TO) samples to be used for recovery determinations. 50 μL aliquots of loading matrix solution were transferred in triplicate to the sample collection plate. The samples were immediately matched with opposite blank buffer to obtain a final volume of 100 μL of 1:1 matrix/dialysis buffer (v/v) in each well. 500 μL of stop solution were added to these TO samples. They were then stored at 2-8° C. pending further processes along with other post-dialysis samples.
To load the dialysis device, an aliquot of 150 μL of the loading matrix was transferred to the donor side of each dialysis well in triplicate, and 150 μL of the dialysis buffer was loaded to the received side of the well. The dialysis was placed in humidified incubator at 37° C. with 5% CO2 on a shaking platform that rated slowly (about 100 rpm) for 4 hours.
At the end of the dialysis, aliquots of 50 μL of samples were taken from both the buffer side and the matrix side of the dialysis deice. These samples were transferred into new 96-well plates (the sample collection plates). […]

human PDE-5A1 = human PDE-5A1 (Homo sapiens, UniProt O76074); test: Human PDE-5A1 inhibition assay (fluorescence polarization); format: biochemical; conditions: human PDE5A1, 100 nM FAM-cGMP, 60 minutes at room temperature
human PDE-6C = human PDE-6C (Homo sapiens, UniProt P51160); test: Human PDE-6C inhibition assay (fluorescence polarization); format: biochemical; conditions: human PDE6C, 100 nM FAM-cGMP, 60 minutes at room temperature
Sequence of human PDE-6C (P51160 whole entry): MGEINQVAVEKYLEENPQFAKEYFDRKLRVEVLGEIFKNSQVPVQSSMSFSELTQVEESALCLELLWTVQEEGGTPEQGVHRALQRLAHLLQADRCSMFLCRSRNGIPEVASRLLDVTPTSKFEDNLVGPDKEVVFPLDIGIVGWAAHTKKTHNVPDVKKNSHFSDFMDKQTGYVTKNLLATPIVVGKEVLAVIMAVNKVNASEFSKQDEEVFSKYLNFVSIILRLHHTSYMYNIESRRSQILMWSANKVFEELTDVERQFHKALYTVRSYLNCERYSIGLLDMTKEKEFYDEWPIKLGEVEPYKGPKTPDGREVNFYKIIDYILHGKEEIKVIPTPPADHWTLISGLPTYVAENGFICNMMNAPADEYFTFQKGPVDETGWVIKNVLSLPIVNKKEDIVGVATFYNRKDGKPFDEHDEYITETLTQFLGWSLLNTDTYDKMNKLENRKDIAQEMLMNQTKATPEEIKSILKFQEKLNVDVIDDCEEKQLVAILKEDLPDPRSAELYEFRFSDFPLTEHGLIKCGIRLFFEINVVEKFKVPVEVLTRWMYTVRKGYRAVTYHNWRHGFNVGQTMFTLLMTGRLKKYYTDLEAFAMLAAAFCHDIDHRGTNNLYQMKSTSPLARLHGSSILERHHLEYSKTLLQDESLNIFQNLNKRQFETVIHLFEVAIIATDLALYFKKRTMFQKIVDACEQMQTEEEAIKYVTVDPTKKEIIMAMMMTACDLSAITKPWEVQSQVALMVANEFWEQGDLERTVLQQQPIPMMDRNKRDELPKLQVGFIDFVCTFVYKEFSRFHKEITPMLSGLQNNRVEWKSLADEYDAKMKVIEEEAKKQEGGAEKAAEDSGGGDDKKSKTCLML

[2] = test system: ocular normotensive rabbits; test: In vivo intraocular pressure (IOP) lowering effect in rabbits; parameters: species or system New Zealand white rabbits; conditions: 50 μL per eye once, right eye vs vehicle in left eye, 1-10 hours post dose
Excerpt: This example illustrates the procedures and results of the intraocular pressure (IOP) lowering effect of compound 18 as compared to Latanoprostene bunod and latanoprost at different concentrations in ocular normotensive rabbits.
Forty (40) male New Zealand white rabbits were divided into 4 groups with 10 animals per group. Animals were then randomly assigned to groups based on body weight.
Latanoprostene bunod ophthalmic solution (LBN, 0.024%) and latanoprost eye drops (0.005%) were used as positive controls and dosed with the same volumes into the right eyes of the tested animals in groups 1 and 2 once.
Compound 18 was instilled into the right eyes of the tested animals in groups 3 (10 mg/mL) and 4 (20 mg/mL) at 50 μL per eye once.
All left eyes of the tested animals in each group were dosed with vehicle solution at 50 μL per eye.
The intraocular pressures (IOPs) were measured once at pre-dose and then once at 1, 2, 4, 6, 8, and 10 hours post dose for each group of animals. FIGS. 1 to 4 show the results from the IOP lowering studies for all four tested groups.

| Structure (SMILES) | % Bound [1] | IC50 (human PDE-5A1) | IC50 (human PDE-6C) | IOP lowering effect ([2]; 10 mg/mL) | IOP lowering effect ([2]; 20 mg/mL) |
| --- | --- | --- | --- | --- | --- |
| CCCc1nn(C)c2c(=O)[nH]c(-c3cc(S(=O)(=O)N4CC(CCCO)C4)ccc3OCC)nc12 [Compound 4, 5-(2-ethoxy-5-((3-(3-hydroxypropyl)azetidin-1-yl)sulfonyl)phenyl)-1-methyl-3-propyl-1,6-dihydro-7H-pyrazolo[4,3-d]pyrimidin-7-one] | 96.01% | – | – | – | – |
| CCCc1nn(C)c2c(=O)[nH]c(-c3cc(S(=O)(=O)N4CC(NCCCO)C4)ccc3OCC)nc12 [Compound 10, 5-(2-ethoxy-5-((3-((3-hydroxypropyl)amino)azetidin-1-yl)sulfonyl)phenyl)-1-methyl-3-propyl-1,6-dihydro-7H-pyrazolo[4,3-d]pyrimidin-7-one] | 86.19% | < 0.01 µM | < 0.01 µM | – | – |
| CCCc1nn(C)c2c(=O)[nH]c(-c3cc(S(=O)(=O)N4CC(CCO[N+](=O)[O-])C4)ccc3OCC)nc12 [Compound 17, 2-(1-((4-ethoxy-3-(1-methyl-7-oxo-3-propyl-6,7-dihydro-1H-pyrazolo [4,3-d]pyrimidin-5-yl)phenyl)sulfonyl)azetidin-3-yl)ethyl nitrate] | – | < 0.01 µM | < 0.01 µM | – | – |
| CCCc1nn(C)c2c(=O)[nH]c(-c3cc(S(=O)(=O)N4CC(CCCO[N+](=O)[O-])C4)ccc3OCC)nc12 [Compound 18, 3-(1-((4-ethoxy-3-(1-methyl-7-oxo-3-propyl-6,7-dihydro-1H-pyrazolo[4,3-d]pyrimidin-5-yl)phenyl)sulfonyl)azetidin-3-yl)propyl nitrate] | 99.52% | < 0.01 µM | < 0.01 µM | significantly lower the IOP | significantly lower the IOP |
| CCCc1nn(C)c2c(=O)[nH]c(-c3cc(S(=O)(=O)N4CC(NCCCO[N+](=O)[O-])C4)ccc3OCC)nc12 [Compound 22, 3-((1-((4-ethoxy-3-(1-methyl-7-oxo-3-propyl-6,7-dihydro-1H-pyrazolo[4,3-d]pyrimidin-5-yl)phenyl)sulfonyl)azetidin-3-yl)amino)propyl nitrate] | 97.53% | – | – | – | – |
